Calls of active or inactive are those of the source. The rule behind the calls is not given here.
Key:
[1] = biological target: Protein-tyrosine kinase 2-beta (Homo sapiens) (UniProt Q14289); assay: Inhibition of Pyk2 (unknown origin) at 1 uM relative to control
Mus musculus [2] = assay: Antiarthritic activity against collagen-induced arthritis DBA/1J mouse model assessed as reduction in XCL1 level in serum at 50 mg/kg, po measured for 4 hrs by luminex analysis; assay type: functional, organism-based
[3] = biological target: Protein kinase C delta type (Homo sapiens) (UniProt Q05655); assay: Inhibition of PKCd (unknown origin) at 1 uM relative to control
[4] = biological target: Calcium/calmodulin-dependent protein kinase type IV (Homo sapiens) (UniProt Q16566); assay: Inhibition of CaMK4 (unknown origin) at 1 uM relative to control
Rattus norvegicus = assay: Antiarthritic activity against collagen-induced arthritis Dark Agouti rat model assessed as reduction in bone degradation by measuring larsen score administered 3 times a week and measured on day 7 by X-ray analysis; assay type: functional, organism-based; conditions: dose 3.0 mg/kg, time 7.0 day
[5] = biological target: T1, Vascular endothelial growth factor receptor 1 (Homo sapiens, UniProt P17948); assay: Inhibition of Flt1 (unknown origin) at 1 uM relative to control
[6] = biological target: Serine/threonine-protein kinase 24 (Homo sapiens) (UniProt Q9Y6E0); assay: Inhibition of MST3 (unknown origin) at 1 uM relative to control
Mus musculus [7] = assay: Antiarthritic activity against collagen-induced arthritis DBA/1J mouse model assessed as MDC level in serum at 50 mg/kg, po measured for 4 hrs by luminex analysis (reference value: 463.8 +/- 32.7 ng/ml); assay type: functional
[8] = biological target: Mitogen-activated protein kinase kinase kinase 3 (Homo sapiens, UniProt Q99759); assay: Inhibition of MAP3K3 (unknown origin)
[9] = biological target: Serine/threonine-protein kinase ULK2 (Homo sapiens) (UniProt Q8IYT8); assay: Inhibition of ULK2 (unknown origin) at 1 uM relative to control
Mus musculus [10] = assay: Antiarthritic activity against collagen-induced arthritis DBA/1J mouse model assessed as reduction in IP-10 level in serum at 50 mg/kg, po measured for 4 hrs by luminex analysis; assay type: functional, organism-based
BaF3 = assay: Antiproliferative activity against mouse BaF3 cells assessed as IL-3-induced inhibition of cell growth incubated for 40 hrs; assay type: functional, cell-based; conditions: BaF3, 40 h
Mus musculus [11] = assay: Antiarthritic activity against collagen-induced arthritis DBA/1J mouse model assessed as reduction in Mx1 expression in paw at 50 mg/kg, po measured for 2 weeks by RT-PCR analysis; assay type: functional, organism-based
[12] = biological target: Interleukin-1 receptor-associated kinase 4 (Homo sapiens, UniProt Q9NWZ3); assay: Inhibition of IRAK4 (unknown origin)
[13] = biological target: Tyrosine-protein kinase ABL1 (Homo sapiens, UniProt P00519); assay: Inhibition of ABL (unknown origin)
Mus musculus [14] = assay: Antiarthritic activity against collagen-induced arthritis DBA/1J mouse model assessed as reduction in MX2 level in whole blood at 50 mg/kg, po measured for 2 weeks by luminex analysis; assay type: functional, organism-based
[15] = biological target: Serine/threonine-protein kinase ICK (Homo sapiens, UniProt Q9UPZ9); assay: Inhibition of ICK (unknown origin)
[16] = biological target: SRSF protein kinase 3 (Homo sapiens) (UniProt Q9UPE1); assay: Inhibition of MSSK1 (unknown origin) at 1 uM relative to control
[17] = biological target: Vascular endothelial growth factor receptor 3 (Homo sapiens, UniProt P35916); assay: Inhibition of Flt4 (unknown origin) at 1 uM relative to control
Mus musculus [18] = assay: Antiarthritic activity against collagen-induced arthritis DBA/1J mouse model assessed as reduction in MMP3 expression at 50 mg/kg, po measured for 4 hrs; assay type: functional, organism-based
[19] = biological target: LIM domain kinase 1 (Homo sapiens) (UniProt P53667); assay: Inhibition of LIMK1 (unknown origin) at 1 uM relative to control
[20] = biological target: Dual specificity mitogen-activated protein kinase kinase 6 (Homo sapiens) (UniProt P52564); assay: Inhibition of MKK6 (unknown origin) at 1 uM relative to control
[21] = biological target: Tyrosine-protein kinase ABL2 (Homo sapiens) (UniProt P42684); assay: Inhibition of Arg (unknown origin) at 1 uM relative to control
[22] = biological target: Insulin receptor (Homo sapiens) (UniProt P06213); assay: Inhibition of IR (unknown origin) at 1 uM relative to control
[23] = biological target: Proto-oncogene tyrosine-protein kinase Src (Homo sapiens) (UniProt P12931); assay: Inhibition of SRC (unknown origin) at 1 uM relative to control
[24] = Cmax in CD-1 mouse at 1 mg/kg, iv measured upto 8 hrs by LC-MS analysis; assay type: ADME, organism-based; conditions: in vivo
[25] = AUC (0 to 24 hrs) in Sprague-Dawley rat at 5 mg/kg, po measured upto 24 hrs by LC-MS analysis; assay type: ADME, organism-based; conditions: in vivo
[26] = biological target: Tyrosine-protein kinase CSK (Homo sapiens) (UniProt P41240); assay: Inhibition of CSK (unknown origin) at 1 uM relative to control
[27] = biological target: Serine/threonine-protein kinase tousled-like 2 (Homo sapiens) (UniProt Q86UE8); assay: Inhibition of TLK2 (unknown origin) at 1 uM relative to control
Misshapen-like kinase 1 = Misshapen-like kinase 1 (Homo sapiens, UniProt Q8N4C8); assay: Inhibition of MINK (unknown origin)
[28] = biological target: T1, Vascular endothelial growth factor receptor 1; assay: Inhibition of Flt1 (unknown origin)
Mus musculus [29] = assay: Antiarthritic activity against collagen-induced arthritis DBA/1J mouse model assessed as reduction in IL-1beta expression at 50 mg/kg, po measured for 4 hrs; assay type: functional, organism-based
[30] = biological target: Serine/threonine-protein kinase pim-2 (Homo sapiens) (UniProt Q9P1W9); assay: Inhibition of Pim-2 (unknown origin) at 1 uM relative to control
Mus musculus [31] = assay: Antiarthritic activity against collagen-induced arthritis DBA/1J mouse model assessed as KC/GRO level in serum at 50 mg/kg, po measured for 4 hrs by luminex analysis (reference value: 73.6 +/- 18.6 ng/ml); assay type: functional
[32] = Tmax in CD-1 mouse at 5 mg/kg, po measured upto 24 hrs by LC-MS analysis; assay type: ADME, organism-based; conditions: in vivo
[33] = biological target: Vascular endothelial growth factor receptor 2 (Homo sapiens) (UniProt P35968); assay: Inhibition of KDR (unknown origin) at 1 uM relative to control
[34] = biological target: Calcium/calmodulin-dependent protein kinase type 1 (Homo sapiens) (UniProt Q14012); assay: Inhibition of CaMK1 (unknown origin) at 1 uM relative to control
[35] = Clearance in CD-1 mouse at 1 mg/kg, iv measured upto 8 hrs by LC-MS analysis; assay type: ADME, organism-based; conditions: in vivo
[36] = biological target: Serine/threonine-protein kinase 3 (Homo sapiens) (UniProt Q13188); assay: Inhibition of MST2 (unknown origin) at 1 uM relative to control
Homo sapiens = species on record: Homo sapiens; assay: Inhibition of PhK2 (unknown origin) at 1 uM relative to control
[37] = biological target: Ephrin type-A receptor 2 (Homo sapiens) (UniProt P29317); assay: Inhibition of EphA2 (unknown origin) at 1 uM relative to control

T1 sequence (P17948 whole entry): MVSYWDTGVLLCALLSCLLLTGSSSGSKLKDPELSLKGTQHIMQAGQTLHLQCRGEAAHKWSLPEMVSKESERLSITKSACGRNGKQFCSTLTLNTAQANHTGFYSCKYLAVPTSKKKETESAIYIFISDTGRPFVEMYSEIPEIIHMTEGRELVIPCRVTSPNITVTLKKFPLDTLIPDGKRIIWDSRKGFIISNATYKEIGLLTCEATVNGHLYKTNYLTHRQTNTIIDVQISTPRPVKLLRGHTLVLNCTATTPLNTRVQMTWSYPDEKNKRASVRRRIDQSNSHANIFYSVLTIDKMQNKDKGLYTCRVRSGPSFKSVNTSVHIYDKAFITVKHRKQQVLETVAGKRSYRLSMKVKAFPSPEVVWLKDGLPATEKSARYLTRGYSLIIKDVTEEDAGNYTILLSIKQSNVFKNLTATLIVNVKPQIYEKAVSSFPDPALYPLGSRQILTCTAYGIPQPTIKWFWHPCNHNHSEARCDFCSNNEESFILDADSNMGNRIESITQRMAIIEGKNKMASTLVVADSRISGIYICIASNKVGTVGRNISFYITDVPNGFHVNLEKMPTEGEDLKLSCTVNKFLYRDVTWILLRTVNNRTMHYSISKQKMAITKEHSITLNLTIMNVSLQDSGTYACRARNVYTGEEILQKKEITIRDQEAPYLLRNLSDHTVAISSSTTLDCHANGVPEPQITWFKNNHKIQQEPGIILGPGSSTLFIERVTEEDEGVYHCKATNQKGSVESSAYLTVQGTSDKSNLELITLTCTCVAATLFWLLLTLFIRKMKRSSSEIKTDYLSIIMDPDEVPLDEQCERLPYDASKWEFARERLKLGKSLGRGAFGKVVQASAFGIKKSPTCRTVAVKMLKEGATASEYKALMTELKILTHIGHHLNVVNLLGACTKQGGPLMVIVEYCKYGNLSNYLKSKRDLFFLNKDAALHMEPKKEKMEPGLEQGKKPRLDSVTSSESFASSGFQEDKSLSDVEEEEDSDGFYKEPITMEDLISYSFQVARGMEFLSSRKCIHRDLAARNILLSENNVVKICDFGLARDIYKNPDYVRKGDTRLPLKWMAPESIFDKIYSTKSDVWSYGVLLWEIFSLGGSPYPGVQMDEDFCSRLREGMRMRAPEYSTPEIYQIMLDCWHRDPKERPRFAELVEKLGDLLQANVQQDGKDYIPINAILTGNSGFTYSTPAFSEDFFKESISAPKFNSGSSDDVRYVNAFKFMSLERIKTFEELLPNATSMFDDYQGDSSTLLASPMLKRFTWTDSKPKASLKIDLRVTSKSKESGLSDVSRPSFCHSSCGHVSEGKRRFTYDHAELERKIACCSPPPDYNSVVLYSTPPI
Tyrosine-protein kinase ABL2 (Homo sapiens), sequence (P42684 whole entry): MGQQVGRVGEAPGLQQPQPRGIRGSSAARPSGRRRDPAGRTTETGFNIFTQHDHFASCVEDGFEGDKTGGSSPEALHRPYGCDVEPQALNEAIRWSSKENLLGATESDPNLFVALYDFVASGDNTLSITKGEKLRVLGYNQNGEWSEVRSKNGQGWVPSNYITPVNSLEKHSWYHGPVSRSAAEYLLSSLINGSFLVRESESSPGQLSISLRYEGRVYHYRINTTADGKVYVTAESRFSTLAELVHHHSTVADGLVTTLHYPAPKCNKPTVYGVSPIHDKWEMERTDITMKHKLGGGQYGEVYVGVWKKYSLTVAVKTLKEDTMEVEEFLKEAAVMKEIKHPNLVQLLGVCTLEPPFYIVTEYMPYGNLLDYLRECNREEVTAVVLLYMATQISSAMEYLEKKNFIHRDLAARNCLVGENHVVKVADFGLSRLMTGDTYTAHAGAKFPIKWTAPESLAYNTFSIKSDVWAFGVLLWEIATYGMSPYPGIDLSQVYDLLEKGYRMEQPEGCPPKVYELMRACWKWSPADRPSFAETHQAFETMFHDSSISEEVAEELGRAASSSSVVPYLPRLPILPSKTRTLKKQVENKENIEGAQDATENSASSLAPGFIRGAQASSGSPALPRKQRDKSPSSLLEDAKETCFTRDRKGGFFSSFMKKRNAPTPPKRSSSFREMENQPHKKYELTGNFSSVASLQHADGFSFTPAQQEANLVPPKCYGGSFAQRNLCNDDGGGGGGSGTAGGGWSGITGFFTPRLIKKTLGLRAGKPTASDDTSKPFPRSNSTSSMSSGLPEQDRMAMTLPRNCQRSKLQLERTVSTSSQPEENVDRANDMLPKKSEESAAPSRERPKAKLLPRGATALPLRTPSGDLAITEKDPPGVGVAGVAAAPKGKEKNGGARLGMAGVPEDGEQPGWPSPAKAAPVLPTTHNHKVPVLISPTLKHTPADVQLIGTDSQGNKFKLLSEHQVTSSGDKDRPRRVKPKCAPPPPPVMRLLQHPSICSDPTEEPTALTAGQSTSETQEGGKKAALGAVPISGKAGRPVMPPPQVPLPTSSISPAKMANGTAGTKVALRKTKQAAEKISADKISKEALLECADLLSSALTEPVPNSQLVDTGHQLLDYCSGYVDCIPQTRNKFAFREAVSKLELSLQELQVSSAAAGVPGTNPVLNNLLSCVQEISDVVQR
Dual specificity mitogen-activated protein kinase kinase 6 (Homo sapiens), sequence (P52564 whole entry): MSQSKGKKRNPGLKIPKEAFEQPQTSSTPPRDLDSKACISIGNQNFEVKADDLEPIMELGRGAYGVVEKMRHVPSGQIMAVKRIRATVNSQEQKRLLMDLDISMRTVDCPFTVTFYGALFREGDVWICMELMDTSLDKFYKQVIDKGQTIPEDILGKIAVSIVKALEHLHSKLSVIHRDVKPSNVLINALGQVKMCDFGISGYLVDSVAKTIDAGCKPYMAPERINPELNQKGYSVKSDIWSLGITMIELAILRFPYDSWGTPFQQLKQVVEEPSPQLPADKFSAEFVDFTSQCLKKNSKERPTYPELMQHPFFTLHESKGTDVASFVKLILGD
Calcium/calmodulin-dependent protein kinase type 1 (Homo sapiens), sequence (Q14012 whole entry, looked up): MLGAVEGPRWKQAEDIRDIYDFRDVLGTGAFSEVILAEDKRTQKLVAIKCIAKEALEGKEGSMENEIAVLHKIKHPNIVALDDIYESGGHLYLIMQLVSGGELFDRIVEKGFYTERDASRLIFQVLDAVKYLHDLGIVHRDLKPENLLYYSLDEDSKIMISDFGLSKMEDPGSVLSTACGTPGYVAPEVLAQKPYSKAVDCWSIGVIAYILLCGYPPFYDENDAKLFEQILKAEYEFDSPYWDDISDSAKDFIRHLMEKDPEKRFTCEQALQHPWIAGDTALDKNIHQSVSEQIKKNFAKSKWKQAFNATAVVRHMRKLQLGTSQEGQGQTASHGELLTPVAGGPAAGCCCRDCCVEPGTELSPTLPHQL
Serine/threonine-protein kinase ULK2 (Homo sapiens), sequence (Q8IYT8 whole entry): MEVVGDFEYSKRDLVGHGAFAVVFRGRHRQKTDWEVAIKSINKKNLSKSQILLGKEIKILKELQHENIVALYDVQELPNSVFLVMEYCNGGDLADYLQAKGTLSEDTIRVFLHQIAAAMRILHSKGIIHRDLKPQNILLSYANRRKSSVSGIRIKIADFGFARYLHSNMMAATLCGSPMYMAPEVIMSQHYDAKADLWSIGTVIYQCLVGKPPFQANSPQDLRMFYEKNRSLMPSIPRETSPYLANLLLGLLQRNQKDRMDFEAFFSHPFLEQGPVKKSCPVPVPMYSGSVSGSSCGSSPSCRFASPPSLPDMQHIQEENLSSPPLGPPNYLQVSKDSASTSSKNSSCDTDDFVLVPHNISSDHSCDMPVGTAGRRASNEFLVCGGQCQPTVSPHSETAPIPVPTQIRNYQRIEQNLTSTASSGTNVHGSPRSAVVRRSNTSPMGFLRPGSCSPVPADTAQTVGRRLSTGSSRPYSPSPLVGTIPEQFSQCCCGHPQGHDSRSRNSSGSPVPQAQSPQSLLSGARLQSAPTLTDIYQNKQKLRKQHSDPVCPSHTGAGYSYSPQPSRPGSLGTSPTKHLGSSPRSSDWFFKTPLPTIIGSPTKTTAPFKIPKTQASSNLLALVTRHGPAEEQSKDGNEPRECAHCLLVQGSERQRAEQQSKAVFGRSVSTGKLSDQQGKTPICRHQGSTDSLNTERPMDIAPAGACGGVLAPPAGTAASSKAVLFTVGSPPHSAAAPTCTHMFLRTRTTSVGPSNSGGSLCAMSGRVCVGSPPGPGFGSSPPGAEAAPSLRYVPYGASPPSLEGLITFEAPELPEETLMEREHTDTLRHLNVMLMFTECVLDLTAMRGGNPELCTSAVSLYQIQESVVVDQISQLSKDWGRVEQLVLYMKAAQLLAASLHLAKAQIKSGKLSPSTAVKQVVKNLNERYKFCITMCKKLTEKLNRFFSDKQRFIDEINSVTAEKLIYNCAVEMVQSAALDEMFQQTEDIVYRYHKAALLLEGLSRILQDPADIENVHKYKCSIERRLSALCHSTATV
Calcium/calmodulin-dependent protein kinase type IV (Homo sapiens), sequence (Q16566 whole entry): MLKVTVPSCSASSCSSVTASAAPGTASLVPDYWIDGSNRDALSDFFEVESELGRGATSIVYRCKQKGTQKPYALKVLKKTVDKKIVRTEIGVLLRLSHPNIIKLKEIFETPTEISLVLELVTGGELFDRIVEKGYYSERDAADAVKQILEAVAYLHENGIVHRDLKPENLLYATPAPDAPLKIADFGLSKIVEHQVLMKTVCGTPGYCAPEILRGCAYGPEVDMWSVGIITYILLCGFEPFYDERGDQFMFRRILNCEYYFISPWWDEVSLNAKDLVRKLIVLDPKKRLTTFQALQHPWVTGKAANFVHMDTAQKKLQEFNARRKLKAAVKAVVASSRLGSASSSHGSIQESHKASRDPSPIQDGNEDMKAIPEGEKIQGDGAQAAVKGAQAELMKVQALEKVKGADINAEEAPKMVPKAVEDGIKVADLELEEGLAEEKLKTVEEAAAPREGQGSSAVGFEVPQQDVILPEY
Serine/threonine-protein kinase pim-2 (Homo sapiens), sequence (Q9P1W9 whole entry, looked up): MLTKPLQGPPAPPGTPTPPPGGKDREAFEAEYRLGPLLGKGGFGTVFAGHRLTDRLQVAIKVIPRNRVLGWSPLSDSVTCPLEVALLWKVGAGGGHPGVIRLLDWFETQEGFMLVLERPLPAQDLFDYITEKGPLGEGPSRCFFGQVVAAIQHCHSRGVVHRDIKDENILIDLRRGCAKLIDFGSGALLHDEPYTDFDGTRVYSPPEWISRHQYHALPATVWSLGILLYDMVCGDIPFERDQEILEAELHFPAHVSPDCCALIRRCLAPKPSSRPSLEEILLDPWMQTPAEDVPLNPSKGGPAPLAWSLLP

SMILES: O=C(Nc1nc2cccc(-c3ccc(CN4CCS(=O)(=O)CC4)cc3)n2n1)C1CC1 [FILGOTINIB]
- inhibition [1]: -8%
- Activity (Mus musculus [2]): Active
- inhibition [3]: -10%
- inhibition [4]: -5%
- Activity (Rattus norvegicus): Dose-Dependent Effect
- inhibition [5]: 37%
- inhibition [6]: 0%
- Activity (Mus musculus [7]): 372.4 ng/mL
- IC50 [8]: > 10 µM
- inhibition [9]: -8%
- Activity (Mus musculus [10]): Active
- IC50 (BaF3; read-out: IC50): 4.55 µM
- IC50 (BaF3; read-out: pIC50 (converted)): 4.57 µM
- Activity (Mus musculus [11]): Active
- IC50 [12]: > 10 µM
- IC50 [13]: 2.3 µM
- Activity (Mus musculus [14]): inactive
- IC50 [15]: > 10 µM
- inhibition [16]: 2%
- inhibition [17]: 77%
- Activity (Mus musculus [18]): Active
- inhibition [19]: -1%
- inhibition [20]: -6%
- inhibition [21]: 14%
- inhibition [22]: -1%
- inhibition [23]: -10%
- Cmax [24]: 637 ng/mL
- AUC [25]: 1680 ng·h/mL
- inhibition [26]: 3%
- inhibition [27]: -6%
- IC50 (Misshapen-like kinase 1): > 10 µM
- IC50 [28]: 1.33 µM
- Activity (Mus musculus [29]): Active
- inhibition [30]: -7%
- Activity (Mus musculus [31]): 33.6 ng/mL
- Tmax [32]: 30 min
- inhibition [33]: 28%
- inhibition [34]: -4%
- clearance [35]: 48.3 mL/min/kg
- inhibition [36]: -10%
- inhibition (Homo sapiens): -7%
- inhibition [37]: -9%

From ChEMBL document CHEMBL5678809, “Preclinical characterization of GLPG0634, a selective inhibitor of JAK1, for the treatment of inflammatory diseases” (J Immunol, 2013)
